Experiment [1] deals with T1, Short transient receptor potential channel 4 (Mus musculus, UniProt Q9QUQ5).
T1 sequence (Q9QUQ5 whole entry): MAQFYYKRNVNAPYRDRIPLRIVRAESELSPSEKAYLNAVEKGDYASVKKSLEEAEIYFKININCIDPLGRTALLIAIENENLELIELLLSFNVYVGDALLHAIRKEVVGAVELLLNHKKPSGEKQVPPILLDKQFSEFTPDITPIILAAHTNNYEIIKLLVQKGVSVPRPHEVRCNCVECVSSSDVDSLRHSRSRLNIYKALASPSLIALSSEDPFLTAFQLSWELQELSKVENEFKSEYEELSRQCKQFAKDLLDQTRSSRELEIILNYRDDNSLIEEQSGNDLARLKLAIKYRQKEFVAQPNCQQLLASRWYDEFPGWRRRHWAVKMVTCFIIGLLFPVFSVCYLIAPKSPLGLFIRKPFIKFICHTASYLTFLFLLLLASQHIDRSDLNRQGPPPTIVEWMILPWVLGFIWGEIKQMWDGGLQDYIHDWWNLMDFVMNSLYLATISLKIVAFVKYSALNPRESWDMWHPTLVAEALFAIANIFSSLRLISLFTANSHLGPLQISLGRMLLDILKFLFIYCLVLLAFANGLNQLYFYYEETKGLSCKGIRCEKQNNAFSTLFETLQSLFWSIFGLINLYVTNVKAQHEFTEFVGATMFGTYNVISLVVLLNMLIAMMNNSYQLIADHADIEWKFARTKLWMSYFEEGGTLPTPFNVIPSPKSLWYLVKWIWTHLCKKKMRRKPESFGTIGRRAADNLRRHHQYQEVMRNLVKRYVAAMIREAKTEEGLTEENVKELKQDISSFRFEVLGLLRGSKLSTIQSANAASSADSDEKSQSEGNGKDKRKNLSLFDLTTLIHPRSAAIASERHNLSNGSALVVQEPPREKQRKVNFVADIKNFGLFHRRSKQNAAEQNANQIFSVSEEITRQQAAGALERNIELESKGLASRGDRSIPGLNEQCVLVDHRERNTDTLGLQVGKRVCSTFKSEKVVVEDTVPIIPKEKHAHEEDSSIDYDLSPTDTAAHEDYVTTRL
In words: mouse TRPC4 channel activators, dose response, cell-based, HEK293 TRPC4/mu-opioid, Fluo-4 calcium (AID 434937). Type of experiment: functional.

The target in experiment [2] is T2, Long-chain-fatty-acid--AMP ligase FadD28 (Mycobacterium tuberculosis, UniProt P9WQ59).
T2 sequence (P9WQ59 whole entry): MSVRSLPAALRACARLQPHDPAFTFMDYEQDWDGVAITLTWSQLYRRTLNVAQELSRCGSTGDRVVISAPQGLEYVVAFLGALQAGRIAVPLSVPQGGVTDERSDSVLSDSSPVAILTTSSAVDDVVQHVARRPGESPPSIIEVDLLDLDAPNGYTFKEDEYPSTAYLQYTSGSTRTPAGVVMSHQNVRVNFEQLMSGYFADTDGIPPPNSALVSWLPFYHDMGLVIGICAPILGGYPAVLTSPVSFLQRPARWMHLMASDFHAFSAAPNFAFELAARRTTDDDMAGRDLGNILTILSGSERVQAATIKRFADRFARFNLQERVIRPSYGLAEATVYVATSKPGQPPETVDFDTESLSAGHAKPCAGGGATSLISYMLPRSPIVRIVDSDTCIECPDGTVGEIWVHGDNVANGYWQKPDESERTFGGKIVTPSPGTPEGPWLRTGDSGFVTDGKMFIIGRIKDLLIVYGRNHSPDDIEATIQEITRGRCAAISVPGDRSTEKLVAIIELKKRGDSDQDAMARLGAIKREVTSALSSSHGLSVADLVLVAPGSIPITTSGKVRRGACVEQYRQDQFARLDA
In words: Fluorescence polarization aasay to screen for inhibitors that compete for the binding of FadD28 to a bisubstrate Measured in Biochemical System Using Plate Reader - 2147-01_Inhibitor_Dose_CherryPick_Activity. Type of experiment: functional, Mycobacterium tuberculosis H37Rv. In general terms: Fluorescence polarisation rises when a labelled molecule tumbles more slowly, as on binding a larger partner.

In experiment [3] the target is T3, Voltage-gated N-type calcium channel alpha-1B subunit/Amyloid beta A4 precursor protein-binding family A member 1 (Homo sapiens, UniProt Q00975+Q02410). Type of experiment: protein assay.
T3 sequence (Q00975 whole entry): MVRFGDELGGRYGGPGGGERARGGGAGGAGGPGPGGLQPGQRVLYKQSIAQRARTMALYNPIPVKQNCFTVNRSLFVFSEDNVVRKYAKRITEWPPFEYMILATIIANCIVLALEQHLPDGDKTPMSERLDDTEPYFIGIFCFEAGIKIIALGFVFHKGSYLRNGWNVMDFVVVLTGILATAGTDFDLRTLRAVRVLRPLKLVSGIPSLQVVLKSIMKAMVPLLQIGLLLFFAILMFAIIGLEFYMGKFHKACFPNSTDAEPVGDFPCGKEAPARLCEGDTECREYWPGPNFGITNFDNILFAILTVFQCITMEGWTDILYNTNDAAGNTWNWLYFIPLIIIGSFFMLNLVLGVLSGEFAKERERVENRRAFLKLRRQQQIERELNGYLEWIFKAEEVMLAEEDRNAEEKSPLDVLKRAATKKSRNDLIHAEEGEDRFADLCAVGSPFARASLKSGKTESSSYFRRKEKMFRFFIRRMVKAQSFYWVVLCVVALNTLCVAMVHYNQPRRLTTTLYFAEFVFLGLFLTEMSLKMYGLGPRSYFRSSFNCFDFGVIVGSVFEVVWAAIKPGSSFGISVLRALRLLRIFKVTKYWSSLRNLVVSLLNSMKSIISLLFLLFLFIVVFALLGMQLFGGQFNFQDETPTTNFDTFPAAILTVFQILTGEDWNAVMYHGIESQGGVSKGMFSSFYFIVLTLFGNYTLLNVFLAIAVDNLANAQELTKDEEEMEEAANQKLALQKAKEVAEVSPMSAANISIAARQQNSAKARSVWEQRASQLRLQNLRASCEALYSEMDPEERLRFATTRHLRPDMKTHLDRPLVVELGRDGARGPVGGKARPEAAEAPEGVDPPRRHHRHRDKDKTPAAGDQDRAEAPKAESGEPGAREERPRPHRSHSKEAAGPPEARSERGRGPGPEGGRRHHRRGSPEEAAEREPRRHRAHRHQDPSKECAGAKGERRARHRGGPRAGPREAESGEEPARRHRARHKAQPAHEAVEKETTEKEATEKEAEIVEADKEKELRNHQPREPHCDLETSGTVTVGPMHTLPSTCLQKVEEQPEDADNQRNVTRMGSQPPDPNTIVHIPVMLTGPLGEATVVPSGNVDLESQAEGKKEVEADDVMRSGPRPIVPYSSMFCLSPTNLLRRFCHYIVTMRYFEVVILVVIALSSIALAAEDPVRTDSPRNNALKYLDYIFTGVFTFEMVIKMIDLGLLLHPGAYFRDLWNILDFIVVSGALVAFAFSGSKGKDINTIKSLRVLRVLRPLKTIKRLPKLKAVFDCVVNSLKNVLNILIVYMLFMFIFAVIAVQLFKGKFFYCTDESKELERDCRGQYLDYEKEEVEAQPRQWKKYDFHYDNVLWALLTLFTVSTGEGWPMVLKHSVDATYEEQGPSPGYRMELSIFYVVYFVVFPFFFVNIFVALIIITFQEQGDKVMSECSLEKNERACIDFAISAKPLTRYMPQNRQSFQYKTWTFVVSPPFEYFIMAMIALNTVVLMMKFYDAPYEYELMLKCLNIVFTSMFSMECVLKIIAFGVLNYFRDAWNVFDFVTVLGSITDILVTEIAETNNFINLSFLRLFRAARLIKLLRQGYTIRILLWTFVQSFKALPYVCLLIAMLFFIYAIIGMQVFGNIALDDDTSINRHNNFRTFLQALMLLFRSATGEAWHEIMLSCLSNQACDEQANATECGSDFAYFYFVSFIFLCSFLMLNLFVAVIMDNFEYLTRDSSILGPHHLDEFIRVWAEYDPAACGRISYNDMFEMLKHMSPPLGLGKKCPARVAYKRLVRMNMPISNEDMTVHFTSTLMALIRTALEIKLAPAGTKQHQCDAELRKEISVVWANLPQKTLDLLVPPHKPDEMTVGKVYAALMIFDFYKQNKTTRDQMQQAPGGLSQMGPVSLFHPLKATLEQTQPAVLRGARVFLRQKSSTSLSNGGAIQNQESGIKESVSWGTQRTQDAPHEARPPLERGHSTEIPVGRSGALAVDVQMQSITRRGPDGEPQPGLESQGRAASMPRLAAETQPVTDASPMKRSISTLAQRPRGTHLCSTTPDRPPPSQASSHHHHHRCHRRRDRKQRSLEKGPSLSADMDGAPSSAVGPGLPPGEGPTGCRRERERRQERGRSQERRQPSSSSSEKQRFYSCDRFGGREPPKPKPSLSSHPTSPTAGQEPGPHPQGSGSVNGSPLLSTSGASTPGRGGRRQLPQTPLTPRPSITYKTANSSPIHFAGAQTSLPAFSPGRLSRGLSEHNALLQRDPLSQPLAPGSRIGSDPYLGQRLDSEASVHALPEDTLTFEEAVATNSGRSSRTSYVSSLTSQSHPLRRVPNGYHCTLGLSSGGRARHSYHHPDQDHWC
T3 sequence (Q02410 whole entry): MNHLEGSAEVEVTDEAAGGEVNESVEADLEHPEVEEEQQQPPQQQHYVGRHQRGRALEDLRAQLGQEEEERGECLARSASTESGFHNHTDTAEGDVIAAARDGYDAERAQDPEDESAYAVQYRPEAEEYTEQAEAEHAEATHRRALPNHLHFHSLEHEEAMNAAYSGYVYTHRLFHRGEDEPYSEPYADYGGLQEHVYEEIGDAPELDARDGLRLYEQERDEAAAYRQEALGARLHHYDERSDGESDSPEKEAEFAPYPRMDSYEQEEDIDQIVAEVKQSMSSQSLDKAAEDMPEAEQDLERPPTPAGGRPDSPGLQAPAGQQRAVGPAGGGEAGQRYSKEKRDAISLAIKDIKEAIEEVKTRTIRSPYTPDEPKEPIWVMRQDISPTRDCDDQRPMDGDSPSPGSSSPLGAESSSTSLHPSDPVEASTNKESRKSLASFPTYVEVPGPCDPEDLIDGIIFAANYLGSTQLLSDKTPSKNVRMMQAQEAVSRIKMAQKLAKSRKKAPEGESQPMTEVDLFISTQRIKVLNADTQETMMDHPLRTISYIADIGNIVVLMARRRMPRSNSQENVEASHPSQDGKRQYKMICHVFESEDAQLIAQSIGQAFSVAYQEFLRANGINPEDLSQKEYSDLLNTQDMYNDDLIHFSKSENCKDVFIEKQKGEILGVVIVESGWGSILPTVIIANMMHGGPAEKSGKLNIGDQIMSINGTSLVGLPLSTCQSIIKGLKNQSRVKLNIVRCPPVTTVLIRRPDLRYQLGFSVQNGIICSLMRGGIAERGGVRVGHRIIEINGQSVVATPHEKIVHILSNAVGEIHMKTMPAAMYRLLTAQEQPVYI
Experiment [4] has as its target T3, Voltage-gated N-type calcium channel alpha-1B subunit/Amyloid beta A4 precursor protein-binding family A member 1. The experiment is classed as protein assay. This is another data set of the same source.
In another experiment the target is Paired box protein Pax-8 (Homo sapiens, UniProt Q06710). Description: inhibitors of PAX8-driven TPO luciferase reporter, dose response, RMG-I cells, cherry-pick (AID 687027).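 Also: luciferase reporter driven by Pax8 target thyroperoxidase promoter measured by SteadyGlo luminescence.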 The experiment is classed as functional, cell-based. For orientation: A reporter such as luciferase makes a cellular process visible.
Chain of Paired box protein Pax-8 (Q06710 whole entry): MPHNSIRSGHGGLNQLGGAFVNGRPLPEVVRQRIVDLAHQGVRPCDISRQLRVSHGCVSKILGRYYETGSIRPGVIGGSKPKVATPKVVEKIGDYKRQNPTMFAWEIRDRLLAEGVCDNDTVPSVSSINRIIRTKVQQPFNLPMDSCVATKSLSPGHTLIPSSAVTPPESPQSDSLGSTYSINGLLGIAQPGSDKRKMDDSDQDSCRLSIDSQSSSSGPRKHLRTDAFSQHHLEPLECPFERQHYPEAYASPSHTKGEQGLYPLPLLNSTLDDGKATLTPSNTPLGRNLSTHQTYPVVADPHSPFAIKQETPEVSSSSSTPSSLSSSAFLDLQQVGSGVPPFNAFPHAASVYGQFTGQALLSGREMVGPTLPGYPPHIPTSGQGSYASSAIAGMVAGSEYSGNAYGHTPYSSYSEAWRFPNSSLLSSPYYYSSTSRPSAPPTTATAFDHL
A further experiment concerns the target T4, Aspartyl aminopeptidase (Plasmodium falciparum 3D7, UniProt Q8I2J3).
T4 sequence (Q8I2J3 whole entry): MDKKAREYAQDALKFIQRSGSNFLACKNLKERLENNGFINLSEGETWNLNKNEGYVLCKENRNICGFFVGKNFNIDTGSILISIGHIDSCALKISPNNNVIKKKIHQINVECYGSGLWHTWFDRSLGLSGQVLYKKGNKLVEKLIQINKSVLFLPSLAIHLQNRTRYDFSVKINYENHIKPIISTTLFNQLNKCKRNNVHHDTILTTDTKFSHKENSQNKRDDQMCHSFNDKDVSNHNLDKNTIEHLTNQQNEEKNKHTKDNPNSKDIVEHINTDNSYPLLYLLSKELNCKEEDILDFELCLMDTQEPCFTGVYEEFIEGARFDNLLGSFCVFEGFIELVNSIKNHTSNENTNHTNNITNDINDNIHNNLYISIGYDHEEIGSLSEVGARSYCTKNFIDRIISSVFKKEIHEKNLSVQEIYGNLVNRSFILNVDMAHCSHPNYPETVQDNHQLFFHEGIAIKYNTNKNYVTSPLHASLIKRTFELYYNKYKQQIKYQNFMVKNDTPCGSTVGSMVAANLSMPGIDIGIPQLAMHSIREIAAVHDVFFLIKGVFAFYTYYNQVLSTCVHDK
Description: Counterscreen for inhibitors of M1 and M17 aminopeptidases: QFRET-based biochemical high throughput dose response assay for inhibitors of the Plasmodium falciparum M18 Aspartyl Aminopeptidase (PFM18AAP). [Related PubChem assays: 1619 (Screening assay (M17LAP inhibitors).), 1445 (Screening assay (M1AAP inhibitors).)]. (A counterscreen serves to expose hits that act by an unwanted route or on another target.)

Active and inactive are the calls of the source.

As a reminder, the EC50 is the concentration at which the effect is half-maximal. The AC50 is the concentration giving half of the maximal activity seen. On to `Cn1c(O)c(/C=N/NC(=O)c2cc3ccccc3cc2O)c2ccccc21`, for which the half-maximal effective concentration (EC50) in experiment [1] is 5.96 µM (active). In addition, the AC50 in experiment [2] is > 100 µM (inactive).
The IC50 is the concentration at which inhibition is half-maximal. With `c1coc(-c2nnc(-c3ccco3)nn2)c1`, the IC50 is 17.7 µM (active) in experiment [3] and 1.66 µM (active) in experiment [4].
On to `O=C(Nc1cccc(NC(=O)c2ccccc2Cl)c1)c1ccc([N+](=O)[O-])o1`, for which the AC50 at Paired box protein Pax-8 is 2.48 µM (active).
As to `Oc1cc(-c2cccc3ccccc23)[nH]n1`, the IC50 against Aspartyl aminopeptidase is given as > 73.5 µM (not active).

The values above are taken from ChEMBL document CHEMBL1201862, “PubChem BioAssay data set” (2004).
